Results as given in patent US8940911B2, “Squarylated lactones inhibitors for bacterial biofilm formation” (Syracuse University, priority 2012, dated 2015).

Legend:
[1] = tested on: DsRed-express-labeled E. coli RP437; assay: Confocal imaging of E. coli biofilms on stainless steel coupons (COMSTAT); assay type: cell-based, Escherichia coli; settings: 200 μM, 24 h at 37° C., CLSM/COMSTAT
Description: The effects of SHLs upon the bacterial biofilm were examined; more specifically, the effect of SHLs upon the biofilm architecture. […] These studies were conducted by static biofilm assays employing crystal violet staining that indicates the total biomass that resides within a biofilm but provides no indication regarding the topology of the biofilms. To elucidate the topological features assumed by the E. coli RP437 biofilm in the presence of SHLs and BF8 48, studies of biofilms consisting of DsRed-express-labeled E. coli RP437 that is fluorescent and can be easily visualized by confocal laser scanning microscopy (CLSM) were performed. […] Further, the stacked images in vinyl-SHL 3 indicating the maximum thickness of the biofilm is considerably smaller than the biofilms in BF8 48 and the untreated E. coli samples. We developed the biofilms consisting of DsRed-express-labeled E. coli on stainless steel coupons (316 L, 1 in×1 in.) for 24 h at 37° C. that were treated with BF8 48 or SHLs or were left untreated. All the samples were analyzed with CLSM (see FIG. 8) and the maximum thickness of biofilms calculated using the COMSTAT software. […] Moreover, butyl-SHL 8 and butoxy-SCPA 46 reduce the biofilm thickness by 38% and 27%, respectively.
An overnight culture of E. coli RP437 pRSH103 grown in LB media (OD600 of 1.0) containing tetracycline (3 μg/mL) was subsequently sub-cultured to an OD600 of 0.04 (1:100 dilution with LB media). To each well in the solvent resistant polypropylene or polystyrene-based 24-well microtiter plates was added 200 μM synthetic molecules in DMSO solution respectively. In addition, to each of the wells containing the known concentrations of synthetic molecules was added 2 mL of the sub-cultured bacteria and the contents in each well were gently mixed. […] The fluorescent emission was detected with a LP 560 nm emission filter. The coupons were gently placed upside down on a microscope cover glass (24×60 mm, No. 2, VWR International LLC, West Chester, Pa., USA) and analyzed with CLSM. […]

[2] = tested on: SK-N-SH cells; assay: Human neuroblastoma cancer cell cytotoxicity assay (CCK-8); assay type: cell-based; settings: 200 or 300 μM, 1 h exposure, read after 24 h
Description: After examining the efficacy of SHLs at inhibiting biofilm, dispersing established biofilms, and reducing the maximum thickness of biofilms without being toxic to the planktonic bacterial cells, we tested the cytotoxicity of the key potent SHLs on the human neuroblastoma cancer cell line SK-N-SH. These studies were conducted such that the SK-N-SH cells were subjected to the maximum concentrations of the key potent SHLs tested on bacteria.
A previously grown T-flask of SK-N-SH cells was observed under a microscope to confirm the confluence of the cells. Next, the old media was discarded and the adherent cells were washed with ˜10 mL of MEM(−). The wash was discarded and 2 mL of Trypsin-EDTA solution was added to the T-flask and incubated for 10 minutes at 37° C. and at 5% atmosphere of CO2. Afterwards, the flask was viewed under a microscope to determine if the cells were suspended in the solution. Subsequently, ˜8 mL of MEM(+) was added to the flask and carefully mixed via pipette to break-up any large clusters of cells. 100 μL of the culture was added to an Eppendorf tube and combined with 100 μL of […]. A hemocytometer and glass cover slide was carefully cleaned with a kimwipe and ethanol. Placing the glass cover slide on top of the hemocytometer, 10 μL of the mixture in the Eppendorf tube was pipetted into the two grooves on the hemocytometer, avoiding the generation of bubbles. The hemocytometer was viewed one chamber at time under a microscope and the live cells were counted using the hemocytometer cell counting method. The remaining cell culture in the T-flask was diluted with MEM(+) to 25 mL such that there would be ˜5000 cells/mL. 100 μL of the culture was placed into wells on a 96 well plate such that one column had only MEM(+) and the wells on the outer perimeter of the plate were left empty. Four plates were made in this manner so that there would be plates for times 0, 24, 48, and 72 h. The plate was then incubated for 24 h at 37° C. and at 5% atmosphere of CO2. Subsequently, the old media was discarded and the wells were subjected to either 200 μM or 300 μM solutions of compounds 3, 4, 8, and 46 in MEM(+) (100 μL) such that one column still contained only MEM(+) and one column contained MEM(+) and untreated cells. The plate was incubated for 1 h and then the solutions were discarded and fresh MEM(+) media was added (100 μL). Each plate was then incubated for the desired time (0, 24, 48, or 72 h). After incubation, 10 μL of CCK-8 solution was added to each well and then the plate was incubated for 2 h followed by reading the OD450 with a microplate reader.

SMILES	reduction of the maximum thickness of biofilm [1]	cytotoxicity on human neuroblastoma cancer cells (in words) [2]
CC1=C(Br)/C(=C/Br)OC1=O [BF8 48, reference compound]	17%	
CCCCOc1c(NC2CCCC2)c(=O)c1=O [butoxy-SCPA 46]	27%	toxic
C=Cc1c(NC2CCOC2=O)c(=O)c1=O (stereo not shown) [vinyl-SHL 3]		toxic
